In one assay the target is T1, Adenosine receptor A3 (Homo sapiens, UniProt P0DMS8).
T1 sequence (P0DMS8 whole entry): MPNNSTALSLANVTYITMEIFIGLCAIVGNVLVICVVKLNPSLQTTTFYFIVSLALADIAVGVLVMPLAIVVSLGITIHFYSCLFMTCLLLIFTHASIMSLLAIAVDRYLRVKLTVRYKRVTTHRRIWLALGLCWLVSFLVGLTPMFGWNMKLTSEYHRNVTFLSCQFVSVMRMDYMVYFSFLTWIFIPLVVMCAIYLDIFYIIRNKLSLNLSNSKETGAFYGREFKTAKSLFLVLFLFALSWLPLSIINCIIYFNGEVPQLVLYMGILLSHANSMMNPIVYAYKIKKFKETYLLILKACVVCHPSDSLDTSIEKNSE
Briefly: Binding affinity for adenosine A3 receptor as inhibition of [125I]AB-MECA binding to human receptor expressed in HEK 293 cells. The format is cell-based, HEK293.

The target of a further assay is T2, Adenosine receptor A1 (Rattus norvegicus, UniProt P25099).
T2 sequence (P25099 whole entry): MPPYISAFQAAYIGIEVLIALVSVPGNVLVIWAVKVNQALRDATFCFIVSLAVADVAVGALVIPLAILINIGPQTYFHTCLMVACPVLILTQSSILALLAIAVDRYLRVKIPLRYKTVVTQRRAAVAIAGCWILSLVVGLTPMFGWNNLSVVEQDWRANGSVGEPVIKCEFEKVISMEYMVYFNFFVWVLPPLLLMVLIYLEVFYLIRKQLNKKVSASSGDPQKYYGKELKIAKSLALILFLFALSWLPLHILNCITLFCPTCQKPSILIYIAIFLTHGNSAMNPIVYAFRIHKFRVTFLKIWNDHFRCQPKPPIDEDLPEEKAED
In words: Binding affinity for adenosine A1 receptor as inhibition of 3[H]-R-PIA binding in rat brain. The class given is tissue-based.

For a further assay, the target named is Adenosine receptor A2a (Rattus norvegicus, UniProt P30543). Briefly: Binding affinity for adenosine A2a receptor as inhibition of 3[H]-CGS 21680 binding in rat striatum. The class given is tissue-based.
Chain of Adenosine receptor A2a (P30543 whole entry): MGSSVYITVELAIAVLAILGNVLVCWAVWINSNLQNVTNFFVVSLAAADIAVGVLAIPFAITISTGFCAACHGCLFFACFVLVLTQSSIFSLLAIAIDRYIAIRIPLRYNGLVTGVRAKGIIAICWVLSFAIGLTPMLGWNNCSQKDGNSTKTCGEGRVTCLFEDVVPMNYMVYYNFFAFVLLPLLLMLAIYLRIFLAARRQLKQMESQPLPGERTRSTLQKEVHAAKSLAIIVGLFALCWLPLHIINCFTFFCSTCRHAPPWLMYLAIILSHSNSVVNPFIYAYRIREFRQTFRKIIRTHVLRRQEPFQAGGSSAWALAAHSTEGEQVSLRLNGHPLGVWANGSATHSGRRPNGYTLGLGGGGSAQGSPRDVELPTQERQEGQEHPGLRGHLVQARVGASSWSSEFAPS

As for `O[C@@H]1[C@H](O)[C@@H](c2ccon2)O[C@H]1n1cnc2c(NCc3cccc(I)c3)nc(Cl)nc21`, the Ki on Adenosine receptor A3 amounted to 7.8 nM; on Adenosine receptor A1 it was 1900 nM; at Adenosine receptor A2a it was 1900 nM.

At Adenosine receptor A3, `CONc1nc(Cl)nc2c1ncn2[C@@H]1O[C@H](CCl)[C@@H](O)[C@H]1O` displayed a Ki of 26 nM.

In the case of `CONc1nc(Cl)nc2c1ncn2[C@@H]1O[C@H](c2ccon2)[C@@H](O)[C@H]1O`, the figures for the Ki at Adenosine receptor A3, at Adenosine receptor A1 and at Adenosine receptor A2a were 31 nM, 620 nM and over 10000 nM, respectively.

Consider `C=C[C@H]1O[C@@H](n2cnc3c(NOC)nc(Cl)nc32)[C@H](O)[C@@H]1O`, for which the values for the inhibition constant Ki on Adenosine receptor A3, on Adenosine receptor A1 and at Adenosine receptor A2a were 20 nM, 1230 nM and over 10000 nM, respectively.

For the compound `CNC(=O)[C@H]1O[C@@H](n2cnc3c(NCc4ccccc4)ncnc32)[C@H](O)[C@@H]1O`, the Ki was 41 nM at Adenosine receptor A3, 2400 nM at Adenosine receptor A1 and 2100 nM on Adenosine receptor A2a.

Values taken from ChEMBL document CHEMBL1130877, “The synthesis of new adenosine A3 selective ligands containing bioisosteric isoxazoles” (Bioorg Med Chem Lett, 1998).
